{"source": "patent US12215351B2", "about": "“Methods for inducing hematopoietic stem cell specificity” (THE CHILDREN'S MEDICAL CENTER CORPORATION, priority 2017, dated 2025)", "key": {"[1]": {"test_system": "Runx1:GFP", "test": "High-throughput image-based chemical screen in Runx1:GFP zebrafish embryo cultures", "assay_type": "cell-based", "conditions": "confirmed by a dose response curve", "protocol": "Stage-matched zebrafish embryos were dissociated at 24 hpf and grown in medium composed of 85% LDF medium, 5% FBS, and 10% embryo extract. LDF medium contains 50% Leibowitz's L-15 (Invitrogen), 20% DMEM (Invitrogen), and 30% DMEM/F-12 (Invitrogen), supplemented with 2% B27 (Gibco), 15 mM HEPES (Gibco), 1% L-glutamine (Gibco), 1% N2 (Gibco), 10 nM sodium selenite (Sigma), 0.018% sodium bicarbonate (Gibco), 0.04% Primocin (Invivogen), and 0.2% Penicillin-Streptomycin (Gibco). All zebrafish experiments and procedures were performed as per protocols approved by the Boston Children's Hospital IACUC.\nTo screen each chemical library plate in duplicate, two 384-well plates were coated with 0.1% gelatin. Runx1:GFP^10 embryos at 24 hpf were washed with E3 embryo water and dechorionated with pronase. Embryos were washed with E3 embryo water, resuspended in blastomere media, mechanically homogenized, and filtered through a 40 µm nylon mesh filter. […]\nA 4× image of the nuclear and fluorescent expression from the entire well was then thresholded and percent area was computed using ImageJ/Fiji. […] From that standard curve, residuals were calculated for each treated well and divided by the standard deviation in the control wells to obtain the z-score of each chemical treatment. […]"}, "[2]": {"test_system": "Runx1:GFP positive cells in the CHT", "test": "Runx1:GFP positive cells in the CHT of live embryos (confocal imaging)", "assay_type": "in vivo, zebrafish", "conditions": "5 μM", "protocol": "Transgenic Runx1:GFP embryos from the same clutch were treated at the time points indicated (n>10 embryos per treatment group) with 5 μM Ro5-3335 diluted in E3. Live embryos were embedded in 0.8% low-melting point agarose containing 0.04 mg/mL Tricaine and imaged on a Nikon Eclipe Ti microscope with 20× Plan-Apo DIC N.A. 0.75. CHT cells were counted blindly in Z-stack image projections processed on Imaris software (Bitplane)."}, "[3]": {"test_system": "human iPSC-derived hemogenic endothelium cells", "test": "Human EHT culture of iPSC-derived hemogenic endothelium, FACS for CD34 and CD45", "assay_type": "cell-based", "conditions": "day 6 of EHT", "protocol": "(§1) Human iPSCs were cultured and differentiated into embryoid bodies as previously described^28. At day 8 of embryoid body differentiation, HE cells were magnetically purified for EHT, and treated with DMSO or Ro5-3335. FACS analysis for CD34 and CD45 was performed at day 6 of EHT using an LSRFortessa™ (BD Biosciences). In the case of the RUNX1c-reporter cell line^21, RUNX1c activity was analyzed at day 4 of EHT using an LSR Fortessa (BD Biosciences)."}, "[4]": {"test_system": "iPSC-derived human hemogenic endothelium cells", "test": "Intrafemoral transplantation of treated human HE cells into NOD/LtSz-scidIL2Rgnull mice", "assay_type": "in vivo", "conditions": "HE cells treated with 25 μM, 6 weeks post-transplant", "protocol": "Intrafemoral transplantations were performed as described previously^28. NOD/LtSz-scidIL2Rgnull mice (Jackson Laboratory) were transplanted with approximately 100,000 HE cells at day 4 that were treated with 25 μM Ro5-3335 or DMSO. Due to the limited cell number that can be obtained during EHT, the transplants were performed over the course of several weeks."}, "[5]": {"test_system": "RUNX1c+24 reporter", "test": "RUNX1c-enhancer reporter cell line undergoing EHT", "assay_type": "cell-based, human", "conditions": "day 4 of EHT", "protocol": "as §1"}, "[6]": {"test_system": "Runx1:GFP+ cells derived from the zebrafish embryo culture", "test": "Zebrafish transplantation of cultured Runx1:GFP+ cells into casper recipients, whole kidney marrow FACS", "assay_type": "in vivo", "conditions": "cells cultured 2 days with 50 μM, analyzed approximately 3 months post-transplant", "protocol": "Runx1:GFP ubi:mCherry embryos were dissociated at 24 hpf and plated with 50 μM Ro5-3335 or DMSO. After two days in culture, double-positive cells were sorted and transplanted into 48 hpf casper recipients as previously described^10. The recipients were grown to adulthood and the whole kidney marrow was dissected at approximately 3 months and analyzed in an LSRII (BD Biosciences). As negative and positive controls, the kidney marrow of two casper adults and one Runx1:GFP ubi:mCherry adult were analyzed."}}}
{"smiles": "O=C1CN=C(c2ccc[nH]2)c2cc(Cl)ccc2N1", "note": "[Ro5-3335, 7-Chloro-1,3-dihydro-5-(1H-pyrrol-2-yl)-2H-1,4-benzodiazepin-2-one]", "values": [{"measurement": "GFP signal in the embryo cultures", "setting": "[1]", "value": "increased"}, {"measurement": "number of Runx1:GFP+ cells in the CHT at 54 hpf", "setting": "[2]; treated 24-30 hpf, imaged at 54 hpf", "value": "significant increase"}, {"measurement": "number of Runx1:GFP+ cells in the CHT at 72 hpf", "setting": "[2]; treated 24-30 hpf, same embryos at 72 hpf", "value": "A significant difference at 72 hpf was not observed"}, {"measurement": "Runx1:GFP positive cells in the CHT", "setting": "[2]; treated 24-48 hpf, imaged at 54 hpf", "value": "increased"}, {"measurement": "Runx1:GFP positive cells in the CHT", "setting": "[2]; treated 24-54 hpf, imaged at 54 hpf", "value": "increased"}, {"measurement": "Runx1:GFP positive cells in the CHT", "setting": "[2]; treated 24-72 hpf, imaged at 72 hpf", "value": "increased"}, {"measurement": "CD34+CD45+ cells", "setting": "[3]", "value": "significant increase"}, {"measurement": "B- and T-cells (CD19, CD3)", "setting": "[4]", "value": "not detected"}, {"measurement": "engraftment in the contralateral leg", "setting": "[4]", "value": "no engraftment detected"}, {"measurement": "engraftment of myeloid cells (CD33)", "setting": "[4]", "value": "clear population expressing the myeloid marker CD33"}, {"measurement": "chimerism of human CD45+ cells in the bone marrow", "setting": "[4]; one mouse", "value": 0.017, "unit": "%"}, {"measurement": "RUNX1c reporter activity", "setting": "[5]", "value": "dose-dependent effect"}, {"measurement": "GFP+ chimerism in kidney marrow of adult casper recipients", "setting": "[6]", "value": "enhanced"}]}
